Patent publication US7256190B2, “Thiazole compounds useful as inhibitors of protein kinase” (Vertex Pharmaceuticals Incorporated, priority 2001, dated 2007)

Experiments:
Type in all cases: biochemical
[1] = target: GSK3-β (AA 1-420) (Homo sapiens, UniProt P49841); experiment: GSK-3 inhibition assay (coupled enzyme system); conditions: 10 μM ATP, 300 μM peptide, 60 nM GSK-3β, 30° C.
Protocol: Compounds were screened for their ability to inhibit GSK3-β (AA 1-420) activity using a standard coupled enzyme system (Fox et al. (1998) Protein Sci. 7, 2249). Reactions were carried out in a solution containing 100 mM HEPES (pH 7.5), 10 mM MgCl2, 25 mM NaCl, 300 μM NADH, 1 mM DTT and 1.5% DMSO. Final substrate concentrations in the assay were 10 μM ATP (Sigma Chemicals, St Louis, Mo.) and 300 μM peptide (HSSPHQS(PO3H2)EDEEE, American Peptide, Sunnyvale, Calif.). Reactions were carried out at 30° C. and 60 nM GSK-3β. Final concentrations of the components of the coupled enzyme system were 2.5 mM phosphoenolpyruvate, 300μM NADH, 30 μg/ml pyruvate kinase and 10 μg/ml lactate dehydrogenase.
An assay stock buffer solution was prepared containing all of the reagents listed above with the exception of ATP and the test compound of interest. 59 μl of the test reaction was placed in a 96 well ½-diameter plate (Corning, Corning, N.Y.) then treated with 1 μl of a 2 mM DMSO stock containing the test compound (final compound concentration 30 μM). The plate was incubated for ˜10 minutes at 30° C. then the reaction initiated by addition of 7 μl of ATP (final concentration 10 μM). Rates of reaction were obtained using a Molecular Devices Spectramax plate reader (Sunnyvale, Calif.) over a 5 minute read time at 30° C.
(§1) The compound numbers correspond to the compound numbers in Table 1.

[2] = target: T1, Aurora2 (Homo sapiens, UniProt O14965); experiment: Aurora2 inhibition assay (coupled enzyme assay); conditions: 800 μM peptide LRRASLG, 70 nM Aurora2, 30° C.
T1 sequence (O14965 1-403): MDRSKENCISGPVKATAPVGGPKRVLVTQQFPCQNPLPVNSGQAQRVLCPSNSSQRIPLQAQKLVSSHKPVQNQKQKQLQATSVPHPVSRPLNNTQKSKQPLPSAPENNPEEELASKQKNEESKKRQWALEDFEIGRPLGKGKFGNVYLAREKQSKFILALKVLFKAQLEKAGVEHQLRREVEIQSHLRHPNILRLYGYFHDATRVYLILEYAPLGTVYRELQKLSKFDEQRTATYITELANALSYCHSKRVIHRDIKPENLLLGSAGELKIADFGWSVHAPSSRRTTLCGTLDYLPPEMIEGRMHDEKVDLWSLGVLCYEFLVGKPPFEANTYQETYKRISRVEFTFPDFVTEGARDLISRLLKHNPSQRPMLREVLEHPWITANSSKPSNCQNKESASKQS
Protocol: Compounds are screened in the following manner for their ability to inhibit Aurora2 using a standard coupled enzyme assay (Fox et al (1998). Protein Sci 7, 2246). To an assay stock buffer solution containing 0.1M HEPES 7.5, 10 mM MgCl2, 1 mM DTT, 25 mM NaCl, 2.5 mM prosphoenolpyruvate, […], […] pyruvate kinase, […] lactate dehydrogenase, […], and 800 μM peptide (LRRASLG, American Peptide, Sunnyvale, Calif.) is added a DMSO solution of a compound of the present invention to a final concentration of 30 μM. The resulting mixture is incubated at 30° C. for 10 minutes. The reaction was initiated by the addition of 10 μL of Aurora2 stock solution to give a final concentration of 70 nM in the assay. The rates of reaction are obtained by monitoring absorbance at 340 nm over a 5 minute read time at 30° C. using a BioRad Ultramark plate reader (Hercules, Calif.). The IC50 values are determined from the rate data as a function of inhibitor concentration.
as §1

[3] = target: Syk (Homo sapiens, UniProt P43405); experiment: Syk inhibition assay (coupled enzyme assay); conditions: 200 μM ATP, 4 μM poly Gly-Tyr peptide, 30° C.
Protocol: Reactions were carried out in 100 mM HEPES pH 7.5, 10 mM MgCl2, 25 mM NaCl, 1 mM DTT and 1.5% DMSO. Final substrate .concentrations in the assay were 200 μM ATP (Sigmachemical Co.) and 4 μM poly Gly-Tyr peptide (Sigma Chemical Co.). Assays were carried out at 30° C. and 200 nM Syk. Final concentrations of the components of the coupled enzyme system were 2.5 mM phosphoenolpyruvate, 300 μM NADH, 30 μg/ml pyruvate kinase and 10 μg/ml lactate dehydrogenase.
An assay stock buffer solution was prepared containing all of the reagents listed above, with the exception of Syk, DTT and the test compound of interest. 56 μl of the test reaction was placed in a 96 well plate followed by the addition of 1 μl of 2 mM DMSO stock containing the test compound (final compound concentration 30 μM). […] Rates of reaction were obtained using a BioRad Ultramark plate reader (Hercules, Calif.) over a 5 minute read time at 30° C.
as §1

Sequence of GSK3-β (AA 1-420) (P49841 whole entry, the tested form may be a part): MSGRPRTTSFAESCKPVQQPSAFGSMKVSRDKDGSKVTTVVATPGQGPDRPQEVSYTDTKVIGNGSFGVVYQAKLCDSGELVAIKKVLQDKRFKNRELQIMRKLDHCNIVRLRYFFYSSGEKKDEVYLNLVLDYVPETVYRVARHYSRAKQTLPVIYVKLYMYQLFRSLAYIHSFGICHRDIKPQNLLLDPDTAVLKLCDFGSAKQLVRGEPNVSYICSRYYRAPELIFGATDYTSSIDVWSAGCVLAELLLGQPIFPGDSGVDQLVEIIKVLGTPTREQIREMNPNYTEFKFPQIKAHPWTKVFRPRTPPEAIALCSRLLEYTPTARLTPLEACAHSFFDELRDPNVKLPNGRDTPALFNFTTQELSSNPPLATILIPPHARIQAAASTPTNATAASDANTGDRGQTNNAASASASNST

Ki [1] [nM]	IC50 [2] [nM]	IC50 [3] [nM]	Compound
< 100			Cc1ccccc1-c1cccc(Nc2nccc(-c3nccs3)n2)c1 [Compound I-3]
< 100			Fc1ccccc1-c1cccc(Nc2nccc(-c3nccs3)n2)c1 [Compound I-6]
	> 2000	< 500	c1ccc(COc2cccc(Nc3nccc(-c4nccs4)n3)c2)cc1 [Compound I-7, (3-Benzyloxy-phenyl)-(4-thiazol-2-yl-pyrimidin-2-yl)-amine]
< 100			c1ccc(Oc2ccc(-c3cccc(Nc4nccc(-c5nccs5)n4)c3)cc2)cc1 [Compound I-9]
> 1000	> 2000		c1ccc(COc2ccc(Nc3nccc(-c4nccs4)n3)cc2)cc1 [Compound I-10]
< 100			COc1ccc(-c2cccc(Nc3nccc(-c4nccs4)n3)c2)c(OC)c1OC [Compound I-12]
	> 2000		c1ccc(Oc2ccc(Nc3nccc(-c4nccs4)n3)cc2)cc1 [Compound I-13]
< 100			COc1cc(F)cc(-c2cccc(Nc3nccc(-c4nccs4)n3)c2)c1 [Compound I-15]
< 100			Fc1ccc(-c2cccc(Nc3nccc(-c4nccs4)n3)c2)c(F)c1 [Compound I-18]
< 100	< 500		c1ccc(COc2cccc(Nc3nccc(-c4nccs4)n3)c2)nc1 [Compound I-20]
> 1000			Clc1ccc(Cl)c(-c2cccc(Nc3nccc(-c4nccs4)n3)c2)c1 [Compound I-21]
< 100			Clc1cccc(-c2cccc(Nc3nccc(-c4nccs4)n3)c2)c1Cl [Compound I-24]
	< 500		c1cncc(COc2cccc(N(Cc3cccnc3)c3nccc(-c4nccs4)n3)c2)c1 [Compound I-26]
< 100			FC(F)(F)c1ccccc1-c1cccc(Nc2nccc(-c3nccs3)n2)c1 [Compound I-27]
< 100	> 2000		Clc1cccc(Nc2nccc(-c3nccs3)n2)n1 [Compound I-28]
< 100			FC(F)(F)c1cccc(-c2cccc(Nc3nccc(-c4nccs4)n3)c2)c1 [Compound I-30]
< 100			CCOc1ccc(-c2cccc(Nc3nccc(-c4nccs4)n3)c2)cc1 [Compound I-33]
100 to 1000			CCOc1ccccc1-c1cccc(Nc2nccc(-c3nccs3)n2)c1 [Compound I-36]
< 100			Cc1ccc(C)c(-c2cccc(Nc3nccc(-c4nccs4)n3)c2)c1 [Compound I-39]

Ki [1] [nM]	IC50 [2] [nM]	IC50 [3] [nM]	Compound
< 100	> 2000		O=[N+]([O-])c1ccc(Nc2nccc(-c3nccs3)n2)cc1 [Compound I-40]
< 100	> 2000		Fc1ccccc1COc1cccc(Nc2nccc(-c3nccs3)n2)c1 [Compound I-41]
< 100			CCOc1cccc(-c2cccc(Nc3nccc(-c4nccs4)n3)c2)c1 [Compound I-42]
< 100		< 500	COc1ccccc1COc1cccc(Nc2nccc(-c3nccs3)n2)c1 [Compound I-44]
< 100			CS(=O)(=O)c1ccc(-c2cccc(Nc3nccc(-c4nccs4)n3)c2)cc1 [Compound I-45]
< 100		> 2000	FC(F)(F)c1ccccc1COc1cccc(Nc2nccc(-c3nccs3)n2)c1 [Compound I-47]
< 100			N#Cc1ccc(-c2cccc(Nc3nccc(-c4nccs4)n3)c2)cc1 [Compound I-48]
	500 to 2000	< 500	c1cncc(Oc2cccc(Nc3nccc(-c4nccs4)n3)c2)c1 [Compound I-50]
100 to 1000			COc1cccc(OC)c1-c1cccc(Nc2nccc(-c3nccs3)n2)c1 [Compound I-51]
		500 to 2000	c1ccc(Oc2cccc(Nc3nccc(-c4nccs4)n3)c2)nc1 [Compound I-53]
< 100			COc1ccc(OC)c(-c2cccc(Nc3nccc(-c4nccs4)n3)c2)c1 [Compound I-54]
< 100			Nc1cccc(-c2cccc(Nc3nccc(-c4nccs4)n3)c2)c1 [Compound I-57]
< 100			CSc1ccc(-c2cccc(Nc3nccc(-c4nccs4)n3)c2)cc1 [Compound I-60]
< 100			c1cncc(-c2cccc(Nc3nccc(-c4nccs4)n3)c2)c1 [Compound I-63]
< 100			Oc1ccc(-c2cccc(Nc3nccc(-c4nccs4)n3)c2)cc1 [Compound I-66]
< 100			Oc1ccccc1-c1cccc(Nc2nccc(-c3nccs3)n2)c1 [Compound I-69]
	500 to 2000		COc1ccc(Nc2nccc(-c3nccs3)n2)cc1 [Compound I-70]
< 100			Oc1cccc(-c2cccc(Nc3nccc(-c4nccs4)n3)c2)c1 [Compound I-72]
< 100			COc1cc(O)ccc1-c1cccc(Nc2nccc(-c3nccs3)n2)c1 [Compound I-75]

Ki [1] [nM]	IC50 [2] [nM]	IC50 [3] [nM]	Compound
< 100			c1cc(Nc2nccc(-c3nccs3)n2)cc(-c2ccc3[nH]ccc3c2)c1 [Compound I-78]
< 100	> 2000		N#Cc1cccc(COc2cccc(Nc3nccc(-c4nccs4)n3)c2)c1 [Compound I-79]
< 100			CN(C)c1ccc(-c2cccc(Nc3nccc(-c4nccs4)n3)c2)cc1 [Compound I-81]
< 100			Cc1cnc(Nc2cccc(-c3ccc(O)cc3)c2)nc1-c1nccs1 [Compound I-84]
< 100	> 2000		Fc1ccc(COc2cccc(Nc3nccc(-c4nccs4)n3)c2)cc1F [Compound I-85]
< 100			Cc1cnc(Nc2cccc(-c3cccnc3)c2)nc1-c1nccs1 [Compound I-87]
< 100			Cc1cnc(Nc2cccc(-c3cccc(N)c3)c2)nc1-c1nccs1 [Compound I-90]
> 1000			COc1ccc(-c2ccccc2)cc1Nc1ncc(C)c(-c2nccs2)n1 [Compound I-93]
> 1000			COc1ccc(-c2ccccc2)cc1Nc1nccc(-c2nccs2)n1 [Compound I-96]
	> 2000		O=[N+]([O-])c1cccc(Nc2cccc(Nc3nccc(-c4nccs4)n3)c2)c1 [Compound I-97]
< 100			Cc1cnc(Nc2cccc(C(F)(F)F)c2)nc1-c1nccs1 [Compound I-99]
< 100	> 2000		Fc1cccc(COc2cccc(Nc3nccc(-c4nccs4)n3)c2)c1 [Compound I-100]
< 100	> 2000		Fc1cc(F)cc(COc2cccc(Nc3nccc(-c4nccs4)n3)c2)c1 [Compound I-103]
< 100			COc1ccc(Nc2nccc(-c3nccs3)n2)cc1Oc1cccc(F)c1 [Compound I-105]
100 to 1000			COc1ccc(Nc2nccc(-c3nccs3)n2)cc1Oc1cccc(Cl)c1 [Compound I-108]
< 100			COc1ccc(Nc2nccc(-c3nccs3)n2)cc1Oc1ccc(Cl)cc1 [Compound I-111]
> 1000	500 to 2000		COc1ccc(Oc2ccccc2)cc1Nc1nccc(-c2nccs2)n1 [Compound I-114]
< 100		> 2000	Cc1ccccc1COc1cccc(Nc2nccc(-c3nccs3)n2)c1 [Compound I-115]
> 1000			COc1ccc(Oc2ccccc2)cc1Nc1ncc(C)c(-c2nccs2)n1 [Compound I-117]
